Experimental findings from ChEMBL document CHEMBL1141489, “A highly efficient route to enantiomerically pure l-N-Bz-Pmp(t-Bu)2-OH and incorporation into a peptide-based protein tyrosine phosphatase inhibitor” (Bioorg Med Chem Lett, 2008) are described below.

pIC50: −log10 of the molar value. Activity calls are given as the source filed them. The rule behind the calls is not given here. Square brackets hold non-standard residues; d marks the D form. Peptide text beside a SMILES is read from it. Pmp = N[C@@H](Cc1ccc(CP(=O)(O)O)cc1)C(=O)O

Assay [1] has as its target T1, Receptor-type tyrosine-protein phosphatase C (Homo sapiens, UniProt P08575).
T1 sequence (P08575 whole entry): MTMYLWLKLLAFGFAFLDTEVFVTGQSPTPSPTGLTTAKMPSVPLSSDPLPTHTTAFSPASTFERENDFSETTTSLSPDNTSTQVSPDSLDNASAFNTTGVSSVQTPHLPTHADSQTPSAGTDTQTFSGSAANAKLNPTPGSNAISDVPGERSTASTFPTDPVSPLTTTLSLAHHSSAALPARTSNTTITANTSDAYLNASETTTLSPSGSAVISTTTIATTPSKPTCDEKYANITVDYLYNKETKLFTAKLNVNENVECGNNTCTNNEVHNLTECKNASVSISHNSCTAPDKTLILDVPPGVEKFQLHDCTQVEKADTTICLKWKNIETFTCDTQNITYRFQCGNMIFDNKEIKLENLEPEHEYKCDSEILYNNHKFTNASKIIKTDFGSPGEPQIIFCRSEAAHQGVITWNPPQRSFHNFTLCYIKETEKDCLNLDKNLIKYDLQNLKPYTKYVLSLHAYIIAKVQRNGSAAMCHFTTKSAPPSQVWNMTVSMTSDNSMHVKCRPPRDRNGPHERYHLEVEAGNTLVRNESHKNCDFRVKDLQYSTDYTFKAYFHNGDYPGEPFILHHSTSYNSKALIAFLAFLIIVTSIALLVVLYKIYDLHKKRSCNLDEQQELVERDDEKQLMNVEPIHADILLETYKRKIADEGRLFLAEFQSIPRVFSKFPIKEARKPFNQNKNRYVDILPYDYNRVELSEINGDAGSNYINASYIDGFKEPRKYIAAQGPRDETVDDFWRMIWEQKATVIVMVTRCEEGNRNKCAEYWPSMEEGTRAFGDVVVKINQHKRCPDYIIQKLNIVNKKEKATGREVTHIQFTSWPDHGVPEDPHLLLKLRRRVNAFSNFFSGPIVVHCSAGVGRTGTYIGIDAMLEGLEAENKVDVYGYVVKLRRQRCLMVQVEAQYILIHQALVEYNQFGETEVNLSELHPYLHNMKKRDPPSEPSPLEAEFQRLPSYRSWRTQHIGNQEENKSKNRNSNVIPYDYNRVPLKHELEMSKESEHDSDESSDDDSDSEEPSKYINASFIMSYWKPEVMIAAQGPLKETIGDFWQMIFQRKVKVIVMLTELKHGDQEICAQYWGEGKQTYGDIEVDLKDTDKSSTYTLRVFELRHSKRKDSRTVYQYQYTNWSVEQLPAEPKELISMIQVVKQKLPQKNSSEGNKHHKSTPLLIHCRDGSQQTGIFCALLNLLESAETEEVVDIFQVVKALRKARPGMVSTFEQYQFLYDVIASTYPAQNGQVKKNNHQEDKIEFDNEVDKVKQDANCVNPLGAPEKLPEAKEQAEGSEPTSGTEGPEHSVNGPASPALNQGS
As to the kind of experiment: Inhibition of CD45.

Assay [2] has as its target T2, Tyrosine-protein phosphatase non-receptor type 2 (Homo sapiens) (UniProt P17706).
T2 sequence (whole entry): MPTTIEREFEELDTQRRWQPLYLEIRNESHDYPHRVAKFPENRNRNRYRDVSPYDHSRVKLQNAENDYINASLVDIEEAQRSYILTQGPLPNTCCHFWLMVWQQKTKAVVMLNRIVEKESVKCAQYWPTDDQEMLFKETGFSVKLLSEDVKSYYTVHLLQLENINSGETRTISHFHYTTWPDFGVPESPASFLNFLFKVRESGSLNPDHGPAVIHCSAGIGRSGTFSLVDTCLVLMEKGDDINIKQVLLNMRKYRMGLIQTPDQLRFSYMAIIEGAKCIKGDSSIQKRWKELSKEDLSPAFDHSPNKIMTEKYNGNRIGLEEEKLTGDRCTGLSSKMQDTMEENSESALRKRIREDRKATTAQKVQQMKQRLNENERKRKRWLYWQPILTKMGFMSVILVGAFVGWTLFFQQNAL
Put plainly: Inhibition of TCPTP upto 120 uM.

Compound `CC(=O)N[C@H](C(=O)N[C@@H](CCC(=O)O)C(=O)NCC(=O)N[C@@H](CCC(N)=O)C(=O)N[C@@H](Cc1ccc(CP(=O)(O)O)cc1)C(=O)N[C@@H](CCC(N)=O)C(=O)N1CCC[C@H]1C(=O)N[C@@H](CCC(N)=O)C(=O)N1CCC[C@H]1C(N)=O)[C@@H](C)O` (Ac-TEGQ[Pmp]QPQP-NH2) gave a pIC50 in assay [1] of 4.00. Further, the outcome in assay [2] was inactive.

Usually pIC50 stands for the IC50 on a negative log10 scale, so that one unit is a factor of ten. The low end stands for a high IC50, the high end for a low IC50.
